Assay results from patent US20250057808A1, “COMPOSITION COMPRISING BETA LACTAM FOR TREATING ALCOHOL DEPENDENCE AND ALCOHOL ASSOCIATED DISEASES OR CONDITIONS” (Temple University of the Commonwealth System of Higher …, priority 2023, published 2025).
Entries after “also recorded” stand apart in the source; their conditions may differ.

Key:
glutamate uptake = conditions: astrocyte-neuron co-culture model, cited from earlier work
[1] = Ethanol intake, preference, water intake and body weight in male and female P rats (section B); type: in vivo, Male and female alcohol-preferring (P) rats; conditions: for Body weight / Ethanol consumption: 100 mg/kg; for Ethanol consumption / Ethanol preference / Water consumption: vs ethanol-saline group; for Ethanol preference / Water consumption: 100 mg/kg i.p.; for Ethanol preference: Day 1 through Day 5
Procedure: Male and female alcohol-preferring (P) rats were acquired from Indiana University School of Medicine, Indianapolis, IN at the age of 80-85 days. All animals were single housed in a room with temperature at 22° C. and 50% humidity in a 12 h light/dark cycle. Rats had free access to food and water throughout the experimental procedures. All the experimental procedures were approved by the University of Toledo Institutional Animal Care and Use Committee (IACUC) under IACUC protocol #400160.
At the age of 90-100 days, 5-7 male and female rats were assigned randomly to three groups: (1) Water-drinking (Water-Saline) group with no access to ethanol and served as a control group; (2) Ethanol-Saline group, which was exposed to continuous free-choice access to ethanol (15% and 30%, v/v, concurrently), and water for five weeks, and saline i.p. injections were performed from Days 1-5 on Week 6; and (3) Ethanol-MC-100093 group, which had continuous free-choice access to ethanol (15% and 30%, v/v), and water for five weeks, and MC-100093 i.p. injections were performed from Days 1-5 on Week 6. Ethanol and water intake were measured as g/kg/day. Rats were required to meet the criterion of an average ethanol consumption of 4 g/kg/day to be included in the study, for at least 2 weeks before saline vehicle or MC-100093 i.p. injections, as adopted in previous studies. Average ethanol and water consumptions throughout Week 5 served as a baseline. At Week 6 of the experiment, ethanol-MC-100093 group received MC-100093 at a dose of 100 mg/kg (i.p.) once daily for five days, and ethanol-saline and water-saline groups received saline vehicle as an i.p injection for five consecutive days. Water and ethanol were measured daily 24 hours after the first i.p. injections of saline or MC-100093 and 24 hours after the last i.p. injections of saline or MC-100093.
All statistical analyses were conducted using GraphPad Prism (10). Two-way (mixed) ANOVA followed by Bonferroni multiple comparison post-hoc test was performed to analyze daily ethanol intake, average daily water intake and body weight. One-way ANOVA followed by Newman-Keuls post hoc tests were used to analyze Western blot data. All statistical analyses data were reported as a p<0.05 of significance.
Ethanol preference was calculated as total ethanol consumption/total fluid consumption×100 from daily alcohol and water consumption.

TNF-α = assay: Western blot TNF-α in subregions of mPFC and NAc; type: in vivo, Male P rats
Procedure: (§1) All P rats were euthanized by CO2 inhalation and decapitated with a guillotine 24 hours after the final i.p. injection was administered on Day 6 of Week 6. Brains were removed and immediately frozen on dry ice and stored at −80° C. The mPFC subregions (infralimbic cortex and prelimbic cortex) and NAc subregions (core and shell) were dissected using a cryostat machine kept at −20° C. Surgical blades were used to dissect all brain regions following visualized landmarks using the stereotaxic coordinates provided by Paxinos and colleague's rat brain stereotactic atlas. All brain regions were stored in −80° C. Western Blot analyses.
(§2) Western blot was performed to determine the expression of BDNF, TNF-α, RAGE, HMGβ-1, and β-tubulin in the subregions of mPFC and NAc as preformed in previous studies.
(§3) Brain samples were lysed with a lysing buffer containing protease inhibitors. The amount of protein in each sample was quantified using a detergent compatible protein assay (Bio-Rad, Hercules, CA, USA). Polyacrylamide gels (10%) were loaded with the lysate mixture, and proteins were separated using gel electrophoresis for 1 hour. Proteins were then transferred from the gels onto Polyvinylidene difluoride (PVDF) membranes (BioRad). After transfer, membranes were incubated for 30 minutes in a mixture of nonfat milk in 1×Tris-buffered saline with Tween-20 (TBST) at room temperature. Membranes were then incubated at 4° C. for 24 hours with primary antibodies: anti-rabbit BDNF (1:1000, Abeam, #ab108319), anti-rabbit TNF-α (1:500, Abeam, #ab9739), anti-rabbit HMGβ-1 (1:500, Abeam, #ab18256), and anti-rabbit RAGE (1:1000, Abeam, #ab37407). Anti-mouse-β-tubulin (1:1000, Cell Signaling Technology, #D71G9) was used as a loading control antibody. After incubating for 24 hours, secondary antibody such as donkey anti-rabbit (1:4000, Invitrogen, #31458) or anti-mouse (1:4000, Cell Signaling, #7076S) was added to the membrane for 1 hour at room temperature. The membranes were then washed with 1×TBST three times for 5 minutes each and then dried. Membranes were then incubated in chemiluminescent reagents (Super Signal West Pico, Pierce Inc.) for 2 minutes. Blot images were developed using ChemiDoc. Imaging System and ImageJ software version 1.53a were used to quantify and analyze the expression of BDNF, TNF-α, RAGE, HMGβ-1, and β-tubulin.
(§4) The data for the water/saline control group were expressed as 100% based on the values corresponding to the ethanol/saline and ethanol/MC-100093 groups for each set of blotting. Thus, the expression of selected proteins for each group (ethanol/saline group or ethanol/MC-100093 group) was calculated relative to the water/saline control group being set to 100%.
(§5) Statistical analyses were performed using GraphPad Prism Version 10. Two-way repeated measures ANOVA followed by Bonferroni post-hoc tests were used to compare water and ethanol intake, and body weight, amongst water group, ethanol/saline group and ethanol/MC-100093 group. A one-way ANOVA test was performed to compare the expression of the studied proteins in selected brain regions in water/saline, ethanol/saline and ethanol/MC-100093 groups. Statistical significance was determined by a p-value of or less than 0.05.

HMGβ-1 = assay: Western blot HMGβ-1 in subregions of mPFC and NAc; type: in vivo, Male P rats
Procedure: as §1, §2, §3, §4, §5

[2] = female P rats, 100 mg/kg i.p. 5 days
[3] = male P rats, 100 mg/kg i.p. 5 days
[4] = 100 mg/kg i.p., compared to ethanol/saline group
[5] = post-treatment with MC-100093 100 mg/kg i.p., 100 mg/kg

SMILES: C[C@@H](O)[C@H]1C(=O)N[C@@H]1[C@@H](C)C(=O)N1CCN(C)CC1 [MC-100093]
- Enhancement of glutamate uptake (glutamate uptake): 23.5%
- IC50 (glutamate uptake; read-out: IC50 (enhancement of glutamate uptake)): 100 nM
- Attenuation effect on ethanol consumption, male compared with female P rats ([1]; 100 mg/kg i.p. 5 days): higher attenuation effect on ethanol consumption in male P rats exceeding female P rats
- Body weight [1, 2]: no significant effect on body weights; also recorded: no effect on the body weight
- Ethanol consumption [1, 2]: reduced ethanol consumption in both male and female P rats from Day 1-5; also recorded: significant decrease in ethanol consumption from Day 1 through Day 5; also recorded: decreased ethanol consumption in male and female P rats
- Ethanol preference ([1]; female P rats): significant decrease in percent ethanol preference
- Water consumption ([1]; female P rats): significant increase in water consumption from Day 1 through Day 5
- Body weight [1, 3]: no significant effect on body weights; also recorded: no effect on the body weight
- Ethanol consumption [1, 3]: reduced ethanol consumption in both male and female P rats from Day 1-5; also recorded: significant decrease in ethanol consumption from Day 1 through Day 5; also recorded: decreased ethanol consumption in male and female P rats
- Ethanol preference ([1]; male P rats): significant decrease in percent ethanol preference
- Water consumption ([1]; male P rats): significant increase in water consumption from treatment Day 1 through Day 5
- TNF-α expression in the IL (TNF-α; [4]): decreased significantly TNF-α expression
- TNF-α expression in the NAc core (TNF-α; [4]): decreased significantly TNF-α expression
- TNF-α expression in the NAc shell (TNF-α; [4]): decreased TNF-α expression
- TNF-α expression in the PL (TNF-α; [4]): significantly decreased the expression of TNF-α
- TNF-α expression in IL, PL, NAc core and NAc shell (summary) (TNF-α; [5]): normalized TNF-α expression in all these brain regions; also recorded: attenuated ethanol-induced upregulation of pro-inflammatory cytokines such as TNF-a and HMGB1
- HMGβ-1 expression in the NAc shell (HMGβ-1; 100 mg/kg i.p., compared to ethanol group): decreased the expression of HMGβ-1
- HMGβ-1 expression in the IL (HMGβ-1; [4]): decreased HMGβ-1 expression
- HMGβ-1 expression in the NAc core (HMGβ-1; [4]): decreased the expression of HMGβ-1
- HMGβ-1 expression in the PL (HMGβ-1; [4]): decreased the expression of HMGβ-1
- HMGβ-1 expression in IL, PL, NAc core and NAc shell (summary) (HMGβ-1; [5]): normalized HMGβ-1 expression in all these brain regions; also recorded: attenuated ethanol-induced upregulation of pro-inflammatory cytokines such as TNF-a and HMGB1
